# Measurements: patent publication US20260125382A1, “COMPOUNDS FOR INHIBITING OR DEGRADING CDK2 AND/OR CDK9 AND MEDICINAL USE THEREOF” (KOREA RESEARCH INSTITUTE OF CHEMICAL TECHNOLOGY, priority 2022, published 2026)
# Key:
# CDK9 = biological target: T1, CDK9 (Homo sapiens, UniProt P50750); assay: CDK protein degradation activity (Western blotting), CDK9; format: cell-based; conditions: MDA-MB-231 cells, 16 hours, Western blot
# T1 construct: endogenous in cells; host or cells: MDA-MB-231
# Procedure, shortened: (§1)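 CDK2 and CDK9 protein levels measured by Western blot with densitometry, using tubulin as loading reference. Cells were MDA-MB-231, exposed for 16 h to 100 nM, 1 μM or 10 μM compound or to DMSO.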
# CDK2 = biological target: T2, CDK2 (Homo sapiens, UniProt P24941); assay: CDK protein degradation activity (Western blotting), CDK2; format: cell-based; conditions: MDA-MB-231 cells, 16 hours, Western blot
# T2 construct: endogenous in cells; host or cells: MDA-MB-231
# Procedure, shortened: as §1
# T1 sequence (P50750 whole entry): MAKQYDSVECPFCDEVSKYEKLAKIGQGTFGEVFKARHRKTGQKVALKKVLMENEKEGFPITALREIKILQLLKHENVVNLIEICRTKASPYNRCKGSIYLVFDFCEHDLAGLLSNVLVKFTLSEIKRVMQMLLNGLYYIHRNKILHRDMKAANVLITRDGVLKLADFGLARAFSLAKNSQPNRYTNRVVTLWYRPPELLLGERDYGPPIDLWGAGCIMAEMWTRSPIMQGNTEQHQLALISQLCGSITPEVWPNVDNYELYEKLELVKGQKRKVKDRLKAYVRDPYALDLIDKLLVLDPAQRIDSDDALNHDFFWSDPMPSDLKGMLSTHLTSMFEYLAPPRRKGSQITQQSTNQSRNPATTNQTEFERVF
Enzyme degradation CDK9 (% remaining) @ 0.1 μM (CDK9),Enzyme degradation CDK9 (% remaining) @ 1 μM (CDK9),Enzyme degradation CDK9 (% remaining) @ 10 μM (CDK9),Enzyme degradation CDK2 (% remaining) @ 0.1 μM (CDK2),Enzyme degradation CDK2 (% remaining) @ 1 μM (CDK2),Enzyme degradation CDK2 (% remaining) @ 10 μM (CDK2),SMILES
50%,10%,10%,50%,30%,30%,"COc1ccc(C(=O)N2CC(CN3CCC4(CC3)CC(N3CCN(c5ccc(Nc6ncnc7c6ncn7[C@H]6C[C@@H](NC(=O)Cc7ccccc7)C6)cc5)CC3)C4)C2)cc1N1CCC(=O)NC1=O [Compound 280, N-((1s,3s)-3-(6-((4-(4-(7-((1-(3-(2,4-dioxotetrahydropyrimidin-1(2H)-yl)-4-methoxybenzoyl)azetidin-3-yl)methyl)-7-azaspiro[3.5]nonan-2-yl)piperazin-1-yl)phenyl)amino)-9H-purin-9-yl)cyclobutyl)-2-phenylacetamide]"
30/30/30%,30/30/30%,30/30/30%,30%,20%,20%,"O=C1CC[C@@H](c2cccc(OCC(=O)N3CC(N4CCC5(CC4)CC(N4CCN(c6ccc(Nc7ncnc8c7ncn8[C@H]7C[C@@H](NC(=O)Cc8ccccc8)C7)cc6)CC4)C5)C3)c2)C(=O)N1 [Compound 274, N-((1s,3s)-3-(6-((4-(4-(7-(1-(2-(3-(2,6-dioxopiperidin-3-yl)phenoxy)acetyl)azetidin-3-yl)-7-azaspiro[3.5]nonan-2-yl)piperazin-1-yl)phenyl)amino)-9H-purin-9-yl)cyclobutyl)-2-phenylacetamide]"
0/0/0%,0/0/0%,0/0/0%,0/0/0%,0/0/0%,0/0/0%,"O=C1CC[C@H](N2C(=O)c3ccc(N4CC(C(=O)N5CCC(N6CCN(c7ccc(Nc8ncnc9c8ncn9[C@H]8C[C@@H](NC(=O)Cc9ccccc9)C8)cc7)CC6)CC5)C4)cc3C2=O)C(=O)N1 [Compound 342, N-((1s,3s)-3-(6-((4-(4-(1-(1-(2-(2,6-dioxopiperidin-3-yl)-1,3-dioxoisoindolin-5-yl)azetidin-3-carbonyl)piperidin-4-yl)piperazin-1-yl)phenyl)amino)-9H-purin-9-yl)cyclobutyl)-2-phenylacetamide]"
30%,0%,10%,100%,60%,30%,"Cc1cccc(C(=O)NC2CC(n3cnc4c(NC5CCN(CCCN6CCN(c7cccc8c7C(=O)N([C@H]7CCC(=O)NC7=O)C8=O)CC6)CC5)ncnc43)C2)n1 (stereo partly drawn) [Compound 42, N-((1s,3s)-3-(6-((1-(3-(4-(2-(2,6-dioxopiperidin-3-yl)-1,3-dioxoisoindolin-4-yl)piperazin-1-yl)propyl)piperidin-4-yl)amino)-9H-purin-9-yl)cyclobutyl)-6-methylpicolinamide]"
0/0/0%,0/0/0%,0/0/0%,30/30/30%,30/30/30%,30/30/30%,"O=C1CC[C@H](N2C(=O)c3cccc(CCCN4CCC(CN5CCN(c6ccc(Nc7ncnc8c7ncn8C7CC(NC(=O)c8cccc(F)n8)C7)cc6)CC5)CC4)c3C2=O)C(=O)N1 (stereo partly drawn) [Compound 431, N-((1s,3s)-3-(6-((4-(4-((1-(3-(2-(2,6-dioxopiperidin-3-yl)-1,3-dioxoisoindolin-4-yl)propyl)piperidin-4-yl)methyl)piperazin-1-yl)phenyl)amino)-9H-purin-9-yl)cyclobutyl)-6-fluoropicolinamide]"
0/0/0%,0/0/0%,0/0/0%,10%,20%,20%,"Cc1cccc(C(=O)N[C@H]2C[C@@H](n3cnc4c(NCc5ccc(N6CCN(C(=O)CNc7ccc8c(c7)C(=O)N([C@H]7CCC(=O)NC7=O)C8=O)CC6)cc5)ncnc43)C2)n1 [Compound 149, N-((1s,3s)-3-(6-((4-(4-((2-(2,6-dioxopiperidin-3-yl)-1,3-dioxoisoindolin-5-yl)glycyl)piperazin-1-yl)benzyl)amino)-9H-purin-9-yl)cyclobutyl)-6-methylpicolinamide]"
50%,10%,10%,20%,10%,10%,"O=C1CC[C@H](N2C(=O)c3ccc(N4CCC(C(=O)N5CCN(C6CC7(CCN(c8ccc(Nc9ncnc%10c9ncn%10[C@H]9C[C@@H](NC(=O)Cc%10ccccc%10)C9)cc8)CC7)C6)CC5)CC4)cc3C2=O)C(=O)N1 [Compound 361, N-((1s,3s)-3-(6-((4-(2-(4-(1-(2-(2,6-dioxopiperidin-3-yl)-1,3-dioxoisoindolin-5-yl)piperidin-4-carbonyl)piperazin-1-yl)-7-azaspiro[3.5]nonan-7-yl)phenyl)amino)-9H-purin-9-yl)cyclobutyl)-2-phenylacetamide]"
0/0/0%,0/0/0%,0/0/0%,20%,0%,0%,"O=C1CCC(N2C(=O)c3ccc(N4CCC(CCN5CCN(c6ccc(Nc7ncnc8c7ncn8[C@H]7C[C@@H](NC(=O)Cc8ccccc8)C7)cc6)CC5)CC4)cc3C2=O)C(=O)N1 (stereo partly drawn) [Compound 327, N-((1s,3s)-3-(6-((4-(4-(2-(1-(2-(2,6-dioxopiperidin-3-yl)-1,3-dioxoisoindolin-5-yl)piperidin-4-yl)ethyl)piperazin-1-yl)phenyl)amino)-9H-purin-9-yl)cyclobutyl)-2-phenylacetamide]"
0/0/0%,0/0/0%,0/0/0%,80%,50%,100%,"Cc1cccc(C(=O)NC2CC(n3cnc4c(NCCCN5CCN(CC6CCN(C(=O)CNc7cccc8c7C(=O)N([C@@H]7CCC(=O)NC7=O)C8=O)CC6)CC5)ncnc43)C2)n1 (stereo partly drawn) [Compound 143, N-((1r,3r)-3-(6-((3-(4-((1-((2-(2,6-dioxopiperidin-3-yl)-1,3-dioxoisoindolin-4-yl)glycyl)piperidin-4-yl)methyl)piperazin-1-yl)propyl)amino)-9H-purin-9-yl)cyclobutyl)-6-methylpicolinamide]"
80%,90%,70%,80%,90%,80%,"Cc1cccc(C(=O)NC2CC(n3cnc4c(NCCCN5CCN(C(=O)CNc6cccc7c6C(=O)N([C@@H]6CCC(=O)NC6=O)C7=O)CC5)ncnc43)C2)n1 (stereo partly drawn) [Compound 139, N-((1r,3r)-3-(6-((3-(4-((2-(2,6-dioxopiperidin-3-yl)-1,3-dioxoisoindolin-4-yl)glycyl)piperazin-1-yl)propyl)amino)-9H-purin-9-yl)cyclobutyl)-6-methylpicolinamide]"
0/0/0%,0/0/0%,0/0/0%,10/10/10%,10/10/10%,10/10/10%,"O=C1CC[C@H](N2C(=O)c3ccc(NCC(=O)N4CCN(CC5CCN(c6ccc(Nc7ncnc8c7ncn8[C@H]7C[C@@H](NC(=O)c8c(Cl)cccc8Cl)C7)cc6)CC5)CC4)cc3C2=O)C(=O)N1 [Compound 312, 2,6-dichloro-N-((1s,3s)-3-(6-((4-(4-((4-((2-(2,6-dioxopiperidin-3-yl)-1,3-dioxoisoindolin-5-yl)glycyl)piperazin-1-yl)methyl)piperidin-1-yl)phenyl)amino)-9H-purin-9-yl)cyclobutyl)benzamide]"
